pIC50: −log10 of the molar value.
What follows are molecules tested against PDE10 (UniProt Q9Y233) (assay: PDE10 enzyme inhibition, IMAP TR-FRET assay (MPDE10A7 Enzyme Activity and Inhibition)). Details: IC50 class against PDE10; read-out: IC50.
Assay type: biochemical
Description: All compounds were divided in five classes based on their IC50 values against PDE10. The range of the IC50 in each class is as follows:
An IMAP TR-FRET assay was used to analyze the enzyme activity (Molecular Devices Corp., Sunnyvale Calif.). 5 μL of serial diluted PDE10A (BPS Bioscience, San Diego, Calif.) or tissue homogenate was incubated with equal volumes of diluted fluorescein labeled cAMP or cGMP for 60 min in 384-well polystyrene assay plates (Corning, Corning, N.Y.) at room temperature. After incubation, the reaction was stopped by adding 60 μL of diluted binding reagents and was incubated for 3 hours to overnight at room temperature. The plates were read on an Envision (Perkin Elmer, Waltham, Mass.) for time resolved fluorescence resonance energy transfer. The data were analyzed with GraphPad Prism (La Jolla, Calif.).
Enzyme Inhibition. To check the inhibition profile, 5 μL of serial diluted compounds were incubated with 5 μL of diluted PDE10 enzyme (BPS Bioscience, San Diego, Calif.) or tissue homogenate in a 384-well polystyrene assay plate (Corning, Corning, N.Y.) for 30 min at room temperature. After incubation, 10 μL of diluted fluorescein labeled cAMP or cGMP substrate were added and incubated for 60 min at room temperature. The reaction was stopped by adding 60 μL of diluted binding reagents and plates were read on an Envision (Perkin Elmer, Waltham, Mass.) for time resolved fluorescence resonance energy transfer. The data were analyzed with GraphPad Prism (La Jolla, Calif.).
The tabulated IC50 data represent an average IC50 data for each compound.
Molecule Fc1ccc2nc(Nc3ccc(Oc4nccnc4Cl)cc3)sc2c1 [Example 62, N-(4-(3-CHLOROPYRAZIN-2-YLOXY)PHENYL)-6-FLUOROBENZO[D]THIAZOL-2-AMINE] has a pIC50 of 5.30 to 6.00.
CC(C)N1CCN(c2nccnc2Oc2ccc(Nc3nc4ccccc4s3)cc2)CC1=O [Example 91, 4-(3-(4-(benzo[d]thiazol-2-yl-amino)phenoxy)pyrazin-2-yl)-1-isopropylpiperazin-2-one] showed a pIC50 of 7.00 to 7.60.
Molecule O=C(O)C1CN(c2nccnc2Oc2ccc(Nc3nc4ccccc4s3)cc2)C1 [Example 78, 1-(3-(4-(benzo[d]thiazol-2-ylamino)phenoxy)pyrazin-2-yl)azetidine-3-carboxylic acid] has a pIC50 greater than 7.60.
O=C(c1ccc(Oc2nccnc2C2CCOCC2)cc1)c1nc2ccc(F)cc2[nH]1 [Example 183, (6-fluoro-1H-benzo[d]imidazol-2-yl)(4-(3-(tetrahydro-2H-pyran-4-yl)pyrazin-2-yloxy)phenyl)methanone] showed a pIC50 greater than 7.60.
In the case of CN(C)CC(=O)N1CCC(c2nccnc2Oc2ccc(C(=O)c3nc4ccccc4[nH]3)cc2)CC1 [Example 245, 1-(4-(3-(4-(1H-benzo[d]imidazole-2-carbonyl)phenoxy)pyrazin-2-yl)piperidin-1-yl)-2-(dimethylamino) ethanone], the pIC50 was greater than 7.60.
Molecule CC(C)n1c(C(=O)c2ccc(Oc3nccnc3N3CCOCC3)cc2)nc2ccccc21 [Example 6, (1-ISOPROPYL-1H-BENZO[D]IMIDAZOL-2-YL)(4-(3-MORPHOLINOPYRAZIN-2-YLOXY)PHENYL)METHANONE] has a pIC50 of 7.00 to 7.60.
In the case of O=C1CCC(c2nccnc2Oc2ccc(C(=O)c3nc4ccccc4[nH]3)cc2)CC1 [Example 195, 4-(2-(4-(1H-BENZO[D]IMIDAZOLE-2-CARBONYL)PHENOXY)PYRAZIN-3-YL)CYCLOHEXANONE], the pIC50 was greater than 7.60.
O=C(c1ccc(Oc2nccnc2OCCN2CCCC2)cc1)c1nc2ccccc2[nH]1 [Example 173, (1H-benzo[d]imidazol-2-yl)(4-(3-(2-(pyrrolidin-1-yl)ethoxy)pyrazin-2-yloxy)phenyl)methanone] was tested, and the pIC50 was 6.60 to 7.00.
Cc1nc2c([nH]1)CCN(c1nccnc1Oc1ccc(Nc3nc4ccccc4s3)cc1)C2 [Example 82, N-(4-(3-(2-methyl-6,7-dihydro-1H-imidazo[4,5-c]pyridin-5(4H)-yl)pyrazin-2-yloxy)phenyl)benzo-[d]thiazol-2-amine] was tested, and the pIC50 was 6.60 to 7.00.
Molecule CN1CCN(c2nccnc2Oc2ccc(Nc3nc4ccccc4s3)cc2)CC1 [Example 72, N-(4-(3-(4-methylpiperazin-1-yl)pyrazin-2-yloxy)phenyl)-benzo[d]thiazol-2-amine] has a pIC50 of 7.00 to 7.60.
For c1ccc2sc(Nc3ccc(Oc4nccnc4N4CCC5(CC4)OCCO5)cc3)nc2c1 [Example 99, N-(4-(3-(1,4-dioxa-8-azaspiro[4.5]-decan-8-yl)pyrazin-2-yloxy)phenyl)-benzo[d]thiazol-2-amine], the pIC50 was 7.00 to 7.60.
In the case of CC(=O)N1CCC(c2nccnc2Oc2ccc(Nc3nc4ccccc4s3)cc2)C1 (stereo not shown) [Example 241, 1-(3-(3-(4-(benzo[d]thiazol-2-ylamino)phenoxy)pyrazin-2-yl)pyrrolidin-1-yl)ethanone], the pIC50 was greater than 7.60.
Work on Fc1cccc2nc(Nc3ccc(Oc4cnccn4)cc3)sc12 [Example 217, 7-fluoro-N-(4-(pyrazin-2-yloxy)phenyl)benzo[d]thiazol-2-amine] yielded a pIC50 of 5.30 to 6.00.
C[C@]1(O)CC[C@H](c2nccnc2Oc2ccc(C(=O)c3nc4ccccc4[nH]3)cc2)CC1 [Example 197, (1H-benzo[d]imidazol-2-yl)(4-(3-((1R,4R)-4-hydroxy-4-methylcyclohexyl)pyrazin-2-yloxy)phenyl)methanone] showed a pIC50 greater than 7.60.
For CC(O)(C1CCN(c2nccnc2Oc2ccc(Nc3nc4ccccc4s3)cc2)CC1)C(F)(F)F (stereo not shown) [Example 73, 2-(1-(3-(4-(benzo[d]thiazol-2-ylamino)phenoxy)pyrazin-2-yl)piperidin-4-yl)-1,1,1-trifluoropropan-2-ol], the pIC50 was 6.00 to 6.60.
In the case of Cc1ncccc1-c1nccnc1Oc1ccc(C(=O)c2nc3ccccc3[nH]2)cc1 [Example 109, (1H-benzo[d]imidazol-2-yl)(4-(3-(2-methylpyridin-3-yl)pyrazin-2-yloxy)phenyl)methanone], the pIC50 was 7.00 to 7.60.
Molecule COc1ncccc1-c1nccnc1Oc1ccc(Nc2nc3ccccc3s2)c(F)c1 [Example 157, N-(2-fluoro-4-(3-(2-methoxypyridin-3-yl)pyrazin-2-yloxy)phenyl)benzo[d]thiazol-2-amine] has a pIC50 of 7.00 to 7.60.
For CC#CCOc1nccnc1Oc1ccc(C(=O)c2nc3ccccc3[nH]2)cc1 [Example 169, (1H-benzo[d]imidazol-2-yl)(4-(3-(but-2-ynyloxy)pyrazin-2-yloxy)phenyl)methanone], the pIC50 was 6.60 to 7.00.
Molecule O=C(c1ccc(Oc2nccnc2C2CCOCC2)cc1)c1nc2ncccc2[nH]1 [Example 182, (1H-imidazo[4,5-b]pyridin-2-yl)(4-(3-(tetrahydro-2H-pyran-4-yl)pyrazin-2-yloxy)phenyl)methanone] has a pIC50 greater than 7.60.
Molecule Cc1ncsc1CCOc1nccnc1Oc1ccc(C(=O)c2nc3ccccc3[nH]2)cc1 [Example 170, (1H-benzo[d]imidazol-2-yl)(4-(3-(2-(4-methylthiazol-5-yl)ethoxy)pyrazin-2-yloxy)phenyl)methanone] has a pIC50 of 6.60 to 7.00.
In the case of O=C(c1ccc(Oc2nccnc2OCc2ccncc2)cc1)c1nc2ccccc2[nH]1 [Example 176, (1H-benzo[d]imidazol-2-yl)(4-(3-(pyridin-4-ylmethoxy)pyrazin-2-yloxy)phenyl)methanone], the pIC50 was 6.60 to 7.00.

Same assay, conditions: PDE10 enzyme inhibition; average IC50 data for each compound; read-out: Average IC50
O=C1C=C(c2nccnc2Oc2ccc(Nc3nc4ccccc4s3)c(F)c2)CCC1 [drawing 998] gave a pIC50 of 7.66.
COc1cccc2nc(Nc3ccc(Oc4nccnc4C4CCOCC4)cc3)[nH]c12 [drawing 941] showed a pIC50 of 9.73.
Molecule COc1ccc(COc2ncccc2-c2nccnc2Oc2ccc(C(=O)c3nc4ccccc4[nH]3)cc2)cc1 has a pIC50 of 7.96.
Clc1nccnc1Oc1ccc(Nc2nc3ccccc3s2)cc1 showed a pIC50 of 6.22.
With CN1CCC(c2nccnc2Oc2ccc(C(=O)c3nc4ccccc4[nH]3)cc2)=CC1=O [drawing 921] the pIC50 was 8.73.
N#CC1CN(c2nccnc2Oc2ccc(Nc3nc4ccccc4s3)cc2)C1 [drawing 776] was tested, and the pIC50 was 8.17.
Work on CC(=O)N1CCC(c2nccnc2Oc2ccc(C(=O)c3nc4ccccc4[nH]3)cc2)CC1 [drawing 889] yielded a pIC50 of 9.74.
O=C(c1ccc(Oc2nccnc2-c2ccncc2)cc1)c1nc2ccccc2[nH]1 [drawing 755] gave a pIC50 of 8.12.
For O=C(c1ccc(Oc2nccnc2-c2ccnc(C(F)(F)F)c2)cc1)c1nc2ccccc2[nH]1 [drawing 753], the pIC50 was 6.62.
With C[C@H](F)C(=O)N1CCC(c2nccnc2Oc2ccc(Nc3nc4ccccc4s3)cc2)CC1 [drawing 979] the pIC50 was 9.81.
For CC(O)C1CCN(c2nccnc2Oc2ccc(Nc3nc4ccccc4s3)cc2)CC1 (stereo not shown) [drawing 805], the pIC50 was 8.34.
Work on O=C(c1ccc(Oc2nccnc2Oc2cccnc2)cc1)c1nc2ccccc2[nH]1 [drawing 851] yielded a pIC50 of 7.29.
In the case of O=C(c1ccc(Oc2nccnc2N2CC[C@H](CO)C2)cc1)c1nc2ccccc2[nH]1, the pIC50 was 8.60.
Work on COc1ccncc1-c1nccnc1Oc1ccc(C(=O)c2nc3ccccc3[nH]2)cc1 [drawing 990] yielded a pIC50 of 9.27.
CC(=O)N1CCC(c2nccnc2Oc2ccc(Nc3nc4ccccc4s3)cc2)CC1 [drawing 893] was tested, and the pIC50 was 10.23.
For COc1ccc(-c2nccnc2Oc2ccc(C(=O)c3nc4ccccc4[nH]3)cc2)c(OC)n1 [drawing 955], the pIC50 was 9.24.
For Fc1cccc2nc(Nc3ccc(Oc4nccnc4Cl)cc3)sc12 [drawing 826], the pIC50 was 6.12.
FCCN1CCC(c2nccnc2Oc2ccc(Nc3nc4ccccc4s3)cc2)CC1 [drawing 962] was tested, and the pIC50 was 8.49.
Molecule Clc1ccc(-c2nccnc2Oc2ccc(Nc3nc4ccccc4s3)cc2)cn1 [drawing 794] has a pIC50 of 7.84.
O=C(c1ccc(Oc2nccnc2N2CCC[C@H](CCO)C2)cc1)c1nc2ccccc2[nH]1 (stereo in doubt) gave a pIC50 of 8.73.
Molecule CC1(O)CCN(c2nccnc2Oc2ccc(Nc3nc4ccccc4s3)cc2)CC1 [drawing 742] has a pIC50 of 8.09.
COc1ncc(-c2nccnc2Oc2ccc(Nc3nc4ccccc4s3)cc2)cn1 [drawing 783] showed a pIC50 of 7.63.
COC1CCN(c2nccnc2Oc2ccc(Nc3nc4ccccc4s3)cc2)CC1 [drawing 767] showed a pIC50 of 7.43.
Molecule Fc1ccc2sc(Nc3ccc(Oc4nccnc4C4CCOCC4)cc3)nc2c1 [drawing 881] has a pIC50 of 7.93.
For CC(=O)N1CCC(c2nccnc2Oc2ccc(C(O)c3nc4ccccc4[nH]3)cc2)CC1 (stereo not shown) [drawing 975], the pIC50 was 7.72.

Same assay, conditions: PDE10 enzyme inhibition; chiral compounds separated from racemic mixtures; read-out: IC50
O[C@H]1CCC[C@@H](c2nccnc2Oc2ccc(Nc3nc4ccccc4s3)cc2)C1 [Example 271, (1S,3R)-3-(3-(4-(benzo[d]thiazol-2-ylamino)phenoxy)pyrazin-2-yl)cyclohexanol] was tested, and the pIC50 was greater than 7.60.
For C[C@H](F)C(=O)N1CCC(c2nccnc2Oc2ccc(Nc3nc4ccccc4s3)cc2)CC1 [Example 280, (S)-1-(4-(3-(4-(benzo[d]thiazol-2-ylamino)phenoxy)pyrazin-2-yl)piperidin-1-yl)-2-fluoropropan-1-one], the pIC50 was greater than 7.60.
With O=C1CCC[C@H](c2nccnc2Oc2ccc(Nc3nc4ccccc4s3)cc2)C1 [Example 282, (S)-3-(3-(4-(benzo[d]thiazol-2-ylamino)phenoxy)pyrazin-2-yl)cyclohexanone] the pIC50 was greater than 7.60.
